In PMC3800266 (Journal of the American Chemical Society, 2013):
Values after ≈ are worked out from the molar mass of the structure shown.

How the values were obtained:
[1] = test system: methicillin-resistant S. aureus, ATCC 43300
[2] = test system: methicillin-susceptible S. aureus, ATOC 29213
[3] = test system: vancomycin-susceptible enterococci, ATCC 29212
[4] = test system: vancomycin-resistant enterococci (VanB), ATCC 51299; conditions: teicoplanin susceptible
VRE (VanA), MMX 486 [5] = conditions: vancomycin and teicoplanin resistant
[6] = test system: vancomycin-resistant enterococci (VanB), ATCC 51299; test: microbe, parasite or virus in culture; conditions: Enterococcus, ATCC51299|VRE, read-out: MIC, VRE (VanB)
VRE (VanA), MMX 486 [7] = test: microbe, parasite or virus in culture; conditions: Enterococcus, read-out: MIC, VRE (VanA)
[8] = test system: vancomycin-susceptible enterococci, ATCC 29212; test: organism not typed; conditions: read-out: MIC, VSE

MIC [6] [µg/mL] | MIC (VRE (VanA), MMX 486 [7]) [µg/mL] | MIC [8] [µg/mL] | Molecule | MIC, MRSA [1] [µg/mL] | MIC, MSSA [2] [µg/mL] | MIC, VSE [3] [µg/mL] | MIC, VRE (VanB) [4] [µg/mL] | MIC, VRE (VanA) (VRE (VanA), MMX 486 [5]) [µg/mL]
– | – | – | Teicoplanin | 0.5 | 0.5 | 0.25 | 0.25 | >64
– | – | – | teicoplanin A2-2 | 0.5 | 0.5 | 0.25 | 0.25 | >64
– | – | – | CN[C@H](CC(C)C)C(=O)N[C@H]1C(=O)N[C@@H](CC(N)=O)C(=O)N[C@H]2C(=O)N[C@H]3C(=O)N[C@H](C(=O)N[C@H](C(=O)O)c4cc(O)cc(O)c4-c4cc3ccc4O)[C@H](O)c3ccc(c(Cl)c3)Oc3cc2cc(c3O[C@@H]2O[C@H](CO)[C@@H](O)[C@H](O)[C@H]2O[C@H]2C[C@](C)(N)[C@H](O)[C@H](C)O2)Oc2ccc(cc2Cl)[C@H]1O [Vancomycin] | 1 (≈ 0.69 µM) | 0.5 (≈ 0.345 µM) | 2 (≈ 1.38 µM) | 16 (≈ 11 µM) | >64
2 (≈ 5.93 µM) | 2 (≈ 5.93 µM) | 2 (≈ 5.93 µM) | CC(=O)NC[C@H]1CN(c2ccc(N3CCOCC3)c(F)c2)C(=O)O1 [Linezolid] | – | – | – | – | –
